This data set relates to N2a cells. Kind of data set: MTT assay, cytotoxicity to N2a cells. It is filed as cell-based. As to conditions: for cell death: 0.5 nM; for IC50: 72 hours, read-out: half-inhibitory concentration (IC50) on cell viability. Here is the method: This experiment mainly used the MTT assay to detect the toxicity of Aβ aggregates to neurons. The specific procedure was as follows: N2a cells were cultured in DMEM medium containing 10% FBS and 1% penicillin/streptomycin. The cells in the culture dish were digested with trypsin, centrifuged, and resuspended in the medium, and then inoculated in a 96-well plate, with about 5,000 cells/100 µL medium per well. After 12 hours, the cells were treated with a series of concentration gradients of sApo*3F and sAβos, and the same volume of solvent was added to the cells as a control. After 72 hours, 25 µL 5 mg/mL MTT was added to each well. After further culture at 37 °C for 3 hours, the medium was aspirated and 150 µL DMSO was added. The absorbance at 570 nm and 630 nm was measured using an MD-M5 microplate reader. The average value of six replicate wells was used for each sample and control, and each experiment was repeated three times. Cell viability was calculated by dividing the absorbance (background corrected) of the sample well with the absorbance (background corrected) of the well added with solvent.
For orientation: Tetrazolium dyes change colour on reduction, which living cells bring about.

As to “sAβos: Aβos prepared in vitro, 10 µM Aβ, 2-day incubation, before immunoprecipitation”, the cell death result is “no substantial neurotoxic effect”. For the same substance, where the note is “200 nM”, the cytotoxicity / neurotoxicity came out at 70%. Under “MTT”, the IC50 is approximately 63.3 nM.
“sApo*3F: Aβo*3F prepared in vitro: Aβ monomers incubated 2 days, immunoprecipitated with the antibody 3F”: the cell death amounted to 66%. Moreover, under “MTT”, the “difference between the two IC50s (sAβos before immunoprecipitation vs sApo*3F)” value turned out to be 340 fold and the IC50 was approximately 0.186 nM.

For the origin of these results see patent EP4571315A1, “DIAGNOSTIC USE OF HIGHLY TOXIC AMYLOID OLIGOMER” (Shen Zhen Wisdom Biopharm Co., Ltd., priority 2022, dated 2024).
